Where only a bound is given, the exact number is not on record here.

For one assay, the target named is Adenosine receptor A2a (Homo sapiens, UniProt P29274). Description: Displacement of [3H]-ZM241385 from human recombinant A2A receptor expressed in human HEK293 cell membrane preincubated for 5 mins and measured after 1.5 hrs by radioligand competition binding assay. The class given is cell membranes.
In another assay the target is T1, Adenosine receptor A1 (Homo sapiens, UniProt P30542).
T1 sequence (P30542 whole entry): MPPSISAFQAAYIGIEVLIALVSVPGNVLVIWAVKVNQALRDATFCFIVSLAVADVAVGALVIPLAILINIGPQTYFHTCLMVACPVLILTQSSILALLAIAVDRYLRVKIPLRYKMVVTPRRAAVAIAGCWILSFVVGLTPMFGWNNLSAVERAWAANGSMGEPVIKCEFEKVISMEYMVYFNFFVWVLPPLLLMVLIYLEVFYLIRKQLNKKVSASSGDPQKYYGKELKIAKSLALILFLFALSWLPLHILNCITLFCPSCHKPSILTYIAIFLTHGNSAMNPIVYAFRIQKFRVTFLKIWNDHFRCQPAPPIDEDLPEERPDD
Description: Displacement of [3H]DPCPX from human adenosine A1 receptor expressed in CHO-K1 cell membrane preincubated for 5 mins followed measured after 50 mins by radioligand competition binding assay. In kind it is cell membranes.

Sequence of Adenosine receptor A2a (P29274 whole entry): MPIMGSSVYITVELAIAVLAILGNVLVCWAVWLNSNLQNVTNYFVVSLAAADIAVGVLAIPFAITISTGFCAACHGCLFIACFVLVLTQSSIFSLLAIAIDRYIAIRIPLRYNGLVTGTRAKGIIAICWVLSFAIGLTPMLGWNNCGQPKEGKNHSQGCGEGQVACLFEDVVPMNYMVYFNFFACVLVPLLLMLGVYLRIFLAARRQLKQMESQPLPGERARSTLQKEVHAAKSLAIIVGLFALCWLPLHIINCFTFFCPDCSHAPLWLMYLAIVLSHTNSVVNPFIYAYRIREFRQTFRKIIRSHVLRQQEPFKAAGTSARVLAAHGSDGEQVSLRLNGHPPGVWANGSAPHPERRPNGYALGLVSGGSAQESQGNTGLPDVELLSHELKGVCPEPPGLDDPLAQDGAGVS

For the compound `Cc1ccc(-c2cn3c(nc4ccccc43)c(N)n2)cc1`, the values for the half-inhibitory concentration (IC50) on Adenosine receptor A2a and at Adenosine receptor A1 were 14.4 nM and 63.9 nM, respectively.

In the case of `COc1cccc(-c2cn3c(nc4ccccc43)c(N)n2)c1`, the results for the IC50 on Adenosine receptor A2a and at Adenosine receptor A1 were 10.1 nM and 95.8 nM, respectively.

For `N#Cc1ccc(-c2cn3c(nc4ccccc43)c(N)n2)cc1`, the 50% inhibitory concentration (IC50) on Adenosine receptor A2a turned out to be 74.4 nM.

`Nc1nc(C2CCN(CC(=O)N3CCOCC3)CC2)cn2c1nc1ccccc12`: on Adenosine receptor A2a, the IC50 was over 10000 nM.

`Nc1nc(Cc2ccccc2)cn2c1nc1ccccc12` registered an IC50 at Adenosine receptor A1 of 733 nM.

Take `COc1ccccc1-c1cn2c(nc3ccccc32)c(N)n1`: the concentration for half-maximal inhibition (IC50) on Adenosine receptor A2a is 83.1 nM.

With `Cc1c(-c2ccccc2)nc(N)c2nc3ccccc3n12`, the IC50 on Adenosine receptor A2a turned out to be 114 nM.

Regarding `Nc1nc(-c2ccccc2)cn2c1nc1ccccc12`, at Adenosine receptor A2a, the half-maximal inhibitory concentration (IC50) worked out at 46.5 nM.

For `Nc1nc(-c2ccc([N+](=O)[O-])cc2)cn2c1nc1ccccc12`, at Adenosine receptor A2a, the IC50 was 71.9 nM.

On to `Nc1nc(-c2cccc(Br)c2)cn2c1nc1ccccc12`, for which the half-maximal inhibitory concentration (IC50) at Adenosine receptor A1 amounted to 92.1 nM.

With `Nc1nc(-c2ccc(C(F)(F)F)cc2)cn2c1nc1ccccc12`, the IC50 at Adenosine receptor A2a amounted to 26.5 nM.

Regarding `Nc1nc(CO)cn2c1nc1ccccc12`, the IC50 at Adenosine receptor A2a stood at 149 nM.

As for `CC(=O)Nc1cccc(-c2cn3c(nc4ccccc43)c(N)n2)c1`, the IC50 was 48.6 nM on Adenosine receptor A2a and 17 nM on Adenosine receptor A1.

As for `Nc1nc(C2CCNCC2)cn2c1nc1ccccc12`, the IC50 at Adenosine receptor A2a is over 10000 nM.

For `Nc1nc(-c2ccc(Cl)cc2)cn2c1nc1ccccc12`, at Adenosine receptor A2a, the IC50 is 35.4 nM.

In the case of `Nc1nc(-c2ccc(Br)cc2)cn2c1nc1ccccc12`, the 50% inhibitory concentration (IC50) on Adenosine receptor A2a stood at 38.4 nM.

At Adenosine receptor A1, `COc1cccc(-c2cn3c(nc4cc(F)c(F)cc43)c(N)n2)c1` showed an IC50 of 460 nM.

As for `Nc1nc(-c2ccc(OC(F)(F)F)cc2)cn2c1nc1ccccc12`, on Adenosine receptor A2a, the IC50 came to 131 nM.

`COCCN1CCC(c2cn3c(nc4ccccc43)c(N)n2)CC1`: the concentration for half-maximal inhibition (IC50) on Adenosine receptor A2a was over 10000 nM.

Regarding `Nc1nc(-c2ccco2)cn2c1nc1ccccc12`, the half-maximal inhibitory concentration (IC50) on Adenosine receptor A2a turned out to be 32.6 nM; on Adenosine receptor A1 it was 6.3 nM.

Take `CC(=O)Nc1ccc(-c2cn3c(nc4ccccc43)c(N)n2)cc1`: at Adenosine receptor A2a, the IC50 was 312 nM.

Turning to `CC(C)(C)c1ccc(-c2cn3c(nc4ccccc43)c(N)n2)cc1`, at Adenosine receptor A2a, the IC50 worked out at 33 nM.

In the case of `Nc1nc(-c2ccc(F)cc2F)cn2c1nc1ccccc12`, the values for the IC50 at Adenosine receptor A2a and on Adenosine receptor A1 were 33.7 nM and 4.4 nM, respectively.

Take `COc1ccc(-c2cn3c(nc4ccccc43)c(N)n2)cc1`: the IC50 at Adenosine receptor A2a is 51.2 nM.

For the compound `Nc1nc(-c2ccc(O)cc2)cn2c1nc1ccccc12`, the 50% inhibitory concentration (IC50) on Adenosine receptor A2a came out at 81.3 nM.
